Assay: Human HepG2 cell viability assay in 384 well format
Assay type: toxicity, cell-based
Design: dose 125 nL, time 70.5 hour; concentration not given beside the values
Conditions: HepG2 cells, read-out: Inhibition

Structure (SMILES)	cytotoxicity at 70.5 h [%]
COc1cccc2c3c(c(=O)[nH]c12)CCC(C)(C)O3	-5.31
NS(=O)(=O)c1cccnc1Nc1c(Cl)cccc1Cl	14
O=c1ncn(-c2ccc(F)cc2)c2ncccc12	-6.86
Cn1c(=O)c2c(n3ncnc13)NC(=O)CC2c1cccc(F)c1 (stereo not given)	-11.8
Cc1ccc2c(c1)Oc1ncccc1C(=O)N2	-0.446
CS(=O)(=O)N1C[C@@H]2COC[C@@H](CC(=O)N3CCCO3)[C@@H]2C1	-8.58
COc1nn(C)c2c1CCCN(S(=O)(=O)c1cccs1)C2	12.6
CN1C[C@@H]2CN(C(=O)C3CCOC3)C[C@@H]2C1=O (stereo not given in full)	9.81
O=C(c1ccoc1)N1CCC2(CC1)COC(COCc1ccccn1)C2 (stereo not given)	10.2
CN(C)C(=O)N1CC2(CCN(S(C)(=O)=O)CC2)c2ccccc21	-1.58
O=C(Cc1ccsc1)N1CCC2(CCCN(CC3CCOCC3)C2)C1 (stereo not given)	1.53
CN1C[C@@H]2CN(C(=O)C3CC=CC3)C[C@@H]2C1=O	-5.58
COCCN1CCC2(COCc3c(C)nc(N(C)C)nc32)C1 (stereo not given)	-2.27
CN1CCN(Cc2cn3c(n2)CN(CC2CC2)CC3)CC1	-2.8
COc1cccc(S(=O)(=O)N2CCCc3c(OC)nn(C)c3C2)c1	-5.16
CS(=O)(=O)N1Cc2nccn2CC(CN2CCCC2)C1 (stereo not given)	-3.59
CN(C)C(=O)COCc1ncn2c1CN(c1ncc(F)cn1)CCC2	9.71
Cc1cccc(N2CC[C@@H]3[C@@H](CO[C@H]3CNS(C)(=O)=O)C2)n1	10.6
CC(C)C(=O)N1CCCC12CCCN(C(=O)c1ccno1)C2 (stereo not given)	13.3
Cc1noc([C@@H]2CCO[C@@H]3CCN(C(=O)Cc4ccsc4)C[C@@H]32)n1	11.3
Cc1ccc(N2CC[C@@H]3CN(Cc4c[nH]cn4)C[C@@H]3C2)nn1	11
CN(C)C(=O)N1CCN(C(=O)c2cccc(Cl)c2)CC2(CNC(=O)C2)C1 (stereo not given)	-4.76

Structure (SMILES)	cytotoxicity at 70.5 h [%]
Cc1nnc([C@@H]2CCO[C@@H]3CCN(C(=O)Cc4ccsc4)C[C@@H]32)o1	-5.87
Cc1ccccc1CNC(=O)N1C[C@H]2C[C@H](C(=O)N3CCCC3)[C@@H](C1)O2	-3.56
Cc1ccccc1CNC(=O)N1C[C@H]2C[C@H](C(=O)N(C)C)[C@@H](C1)O2	-5.69
O=C(C[C@H]1[C@H]2CN(C(=O)Cc3ccccn3)C[C@@H]12)Nc1cccnc1	-1.03
CS(=O)(=O)N1CCN(C(=O)c2cccc(Cl)c2)CC2(CNC(=O)C2)C1 (stereo not given)	-0.473
CC(C)C(=O)N1CCc2nc(C(=O)Nc3cccnc3)sc2CC1	-2.65
COCC(=O)N1CCc2nc(C(=O)Nc3cccnc3)sc2CC1	-2.18
Cc1ccc(N2CC[C@@H]3[C@@H](CO[C@H]3CNC(=O)c3ccco3)C2)nn1	-1.79
Cc1cc(C(=O)N2CCC3(CC2)C(=O)NCCN3CC(C)C)c(C)o1	-2.92
Cc1[nH]/c(=N/C(=O)Cn2nc(N3CCOCC3)ccc2=O)sc1C	-6.43
CCOC(=O)N1CCN(C(=O)c2snnc2-c2ccccc2)CC1	-9.63
Cc1ccc(Cn2c(=O)[nH]c3cccnc3c2=O)cc1	-8.02
CCN1CCc2c(sc3c2C(=O)NC(/C=C\c2ccccc2)N3)C1 (stereo not given)	16.4
Cn1c(=O)c2sccc2n(CC(=O)Nc2cccc(Cl)c2)c1=O	8.96
CC(C)c1cccc(NC(=O)Cn2c(=O)n(C)c(=O)c3sccc32)c1	5.39
Nc1ncccc1C(=O)NCc1cccc(Br)c1	13.7
Cc1cccc(CNC(=O)c2cccnc2N)c1	18
NC1CCN(c2nccn3c(=O)[nH]nc23)CC1	22.8
COc1ccc(-c2ccnc3nc(N4CCCCC4)[nH]c(=O)c23)cc1	-9.32
O=c1[nH]c(N2CCCCC2)nc2nccc(-c3ccc4c(c3)OCO4)c12	-12.9
COc1ccc(-c2ccnc3nc(N4CCCC4)[nH]c(=O)c23)cc1OC	-9.78
COc1cccc(-c2ccnc3nc(N4CCCCC4)[nH]c(=O)c23)c1	17.7

Structure (SMILES)	cytotoxicity at 70.5 h [%]
O=C(CC1Cn2ncnc2NC1=O)Nc1ccccc1 (stereo not given)	-8.16
CCOCCCNC(=O)CN(c1ccc(C)c(C)c1)S(C)(=O)=O	-9.65
CC(C)NC(=O)c1ccc2c(c1)nc1n2CCN(Cc2ccccc2)C1	-12.9
O=C1CSC(c2ccncc2)c2c[nH]nc2N1 (stereo not given)	-8.06
O=C1CSC(c2ccc3c(c2)OCO3)c2cn[nH]c2N1 (stereo not given)	-4
CCOc1ccc(C2SCC(=O)Nc3c2c(=O)[nH]n3C(C)C)cc1 (stereo not given)	-11.8
CCOCCCNC(=O)CN(c1ccc(F)c(F)c1)S(C)(=O)=O	-12.9
CN1CCc2c(sc3c2C(=O)NC(/C=C/c2ccccc2)N3)C1 (stereo not given)	-11.3
CCOC(=O)c1ccc(NC(=O)c2c(O)nc3c(c2O)CCCC3)cc1	-10.8
CC(C)n1[nH]c(=O)c2c1NC(=O)CSC2c1ccc(OCC(N)=O)cc1 (stereo not given)	-11.1
CC(C)COc1ccc(C2SCC(=O)Nc3c2c(=O)[nH]n3C(C)C)cc1 (stereo not given)	-4.59
O=C(Cn1nc2c(cc1=O)CCCC2)NC(Cc1ccccc1)C(=O)O (stereo not given)	-10.7
Cc1cccc(NC(=O)Cc2cnc3n(C)c(=O)[nH]c(=O)n23)c1	22.4
Cn1c(=O)[nH]c(=O)n2c(CC(=O)Nc3ccccc3)cnc12	-15.7
COCCNC(=O)C1CCCN(c2ccc3nncn3n2)C1 (stereo not given)	9.49
CCOC(=O)Cn1c(=O)nc2n1C(=O)N(c1ccccc1)C2	8.85
COC(=O)Cn1c(=O)nc2n1C(=O)N(c1cccc(C)c1)C2	-7.13
COC(=O)Cn1c(=O)nc2n1C(=O)N(c1ccc(F)cc1)C2	-12.5
CN1CCN(C(=O)Cn2ccc3c(Cl)cccc32)CC1	-12.2
Cc1cnc(NC(=O)c2csc(NCC(C)C)n2)s1	9.3
CC(C)n1[nH]c(=O)c2c1NC(=O)CC2c1cccc2cccnc12 (stereo not given)	15.8
CC(C)n1[nH]c(=O)c2c1NC(=O)CC2c1ccncc1 (stereo not given)	-11.3

Structure (SMILES)	cytotoxicity at 70.5 h [%]
CC(C)n1[nH]c(=O)c2c1NC(=O)CC2c1ccc(C#N)cc1 (stereo not given)	18.7
CSc1ccc(C2CC(=O)Nc3c2c(=O)[nH]n3C(C)C)cc1 (stereo not given)	-9.28
COc1cccc(C2CC(=O)Nc3c2cnn3C(C)(C)C)c1 (stereo not given)	-6.1
CC(C)(C)n1ncc2c1NC(=O)CC2c1ccc(C(=O)O)cc1 (stereo not given)	-13.3
CC(C)(C)n1ncc2c1NC(=O)CC2c1ccc(C#N)cc1 (stereo not given)	-10
CC(C)CNC(=O)CSC1CCc2ccccc2NC1=O (stereo not given)	-15.8
CC(C)NC(=O)C(C)NC(=O)N1CCN(c2ccc(Cl)cc2)CC1 (stereo not given)	19
O=C1CC(c2cccs2)c2sc(C(=O)O)c(-c3ccccc3)c2N1 (stereo not given)	-9.97
O=C(NCc1ccc(Cl)cc1)C1CCCN(c2ccc3nncn3n2)C1 (stereo not given)	-9.54
COC(=O)Cn1c(=O)nc2n1C(=O)N(c1ccc(Br)cc1)C2	10.9
Cc1[nH]/c(=N\C(=O)c2csc(NC3CCCC3)n2)sc1C	31.2
Cc1cs/c(=N/C(=O)c2csc(NCC(C)C)n2)[nH]1	-4.1
CC(C)(C)n1ncc2c1NC(=O)CC2c1c(F)cccc1F (stereo not given)	-14.5
COc1cccc2c3c(c(=O)[nH]c12)CCO3	3.58
COc1cccc2c3c(c(=O)n(C)c12)CCC(C)(C)O3	-10.4
COc1cc(OCC(=O)NCCc2ccccc2)cc(OC)c1OC	-5.97
O=c1[nH]cnc2[nH]c(N3CCNCC3)nc12	-2.26
Cc1ccccc1-n1c(O)cc(C)c(C#N)c1=O	-1.83
Cc1ccc(-n2c(O)cc(C)c(C#N)c2=O)c(C)c1	-1.45
CCN(CC)S(=O)(=O)c1cnccc1N1CCN(C(C)C)CC1	7.88
CCCNS(=O)(=O)c1cnccc1N1CCN(C(C)C)CC1	7.02
Cn1cc(I)c(C(=O)NC2CCCCC2)n1	28.2

Structure (SMILES)	cytotoxicity at 70.5 h [%]
CCn1cc(C(=O)Nc2cc(C(=O)OC)ccc2C(=O)OC)cn1	-9
CCn1cc(C(=O)Nc2cc(C)ccc2C)cn1	17
O=c1c2cn[nH]c2nc(SCCN2CCCC2)n1-c1ccccc1	-6.58
CC(=O)c1c(C)nn(S(=O)(=O)c2ccc(C)cc2)c1C	0.514
O=C1COC2(CCN(c3ncccn3)CC2)CN1	-1.8
CCn1nc(C)cc1C(=O)N1CC[C@H](OC)[C@H]2CN(CC3CC3)C[C@H]21	7.23
Cc1nc(N2CCOCC2)nc2c1COCC21CCN(CC2CC2)C1 (stereo not given)	8.58
CS(=O)(=O)N1CCC2(CCCN(Cc3ccccn3)C2)CC1	10.3
CN(C)C(=O)COCc1nn(C)c2c1CCN(Cc1ccco1)C2	-5.57
c1cnc(NC[C@@H]2CCC[C@@H]3CN(Cc4csnn4)C[C@@H]32)nc1	-9.2
Fc1ccccc1CN1CCCC2(CCN(c3ncccn3)CC2)C1	-3.46
Cc1nc([C@H]2C[C@@H]3CCN(Cc4scnc4C)C[C@H]3O2)no1	-5.9
Cn1nc(Cn2cccn2)c2c1CN(C1CCOC1)C2 (stereo not given)	-6.25
Cc1ccc(N2CC[C@@H]3[C@@H]2CCN3C(=O)c2cscn2)nn1	-4.17
Cc1ccc(CN2CCCC3(CCN(Cc4ccoc4)CC3)C2)cc1	15.4
CN(C)C[C@@H]1OC[C@H]2CN(Cc3ccoc3)CC[C@H]21	-0.512
CN(Cc1ccncc1)C1CC2(CCN(c3ncc(F)cn3)CC2)C1	2.52
CN(Cc1cccnc1)C1CC2(CCN(c3ncc(F)cn3)CC2)C1	-5.89
Cc1cnc(N2CCC3(CC2)CC(N(C)Cc2ccncc2)C3)nc1	-5.66
Fc1cnc(N2CC[C@@H]3CN(Cc4ccncc4)CCO[C@@H]3C2)nc1	7.83
NCc1ccccc1Sc1ccc(O)cc1	-8.8
CC(N)Cc1ccccc1Sc1ccc(O)cc1 (stereo not given)	-7.28

From ChEMBL document CHEMBL3507680, “University of Dundee, Gates Library screen for HepG2 cell viability”
